From patent US11623919B2, “Heterocyclic P2X7 antagonists” (AXXAM S.P.A., priority 2017, dated 2023) come the findings set out here.

What all share (experiment): Screen Quest Fluo-8 No Wash Calcium Assay (Bz-ATP evoked Ca2+ influx, FLIPR)
Assay type in all cases: cell-based

Experiment [1] deals with T1, P2X7 receptor (Mus musculus, UniProt Q9Z1M0).
T1 construct: mP2X7 (IC50; nM); other: mP2X7; HEK-293 cells stably transfected with P2X7 receptor, Bz-ATP at EC80, Fluo-8 NW; potency
T1 sequence (Q9Z1M0 1-595): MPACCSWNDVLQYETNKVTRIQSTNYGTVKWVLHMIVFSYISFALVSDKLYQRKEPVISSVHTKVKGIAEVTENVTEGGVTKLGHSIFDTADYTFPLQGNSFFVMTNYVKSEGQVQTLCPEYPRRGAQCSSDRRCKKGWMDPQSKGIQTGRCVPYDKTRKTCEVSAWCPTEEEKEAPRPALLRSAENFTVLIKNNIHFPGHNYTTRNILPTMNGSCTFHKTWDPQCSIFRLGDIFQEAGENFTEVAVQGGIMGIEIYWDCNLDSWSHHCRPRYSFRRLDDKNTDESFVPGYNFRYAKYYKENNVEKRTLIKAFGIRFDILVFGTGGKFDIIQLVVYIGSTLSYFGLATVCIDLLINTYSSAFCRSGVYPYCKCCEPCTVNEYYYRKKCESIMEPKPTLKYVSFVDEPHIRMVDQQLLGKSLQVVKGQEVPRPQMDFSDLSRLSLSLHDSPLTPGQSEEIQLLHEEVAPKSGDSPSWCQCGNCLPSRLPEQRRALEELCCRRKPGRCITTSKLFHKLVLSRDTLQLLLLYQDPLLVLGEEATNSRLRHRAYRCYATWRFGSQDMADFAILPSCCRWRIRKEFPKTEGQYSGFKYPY
To be noted: mP2X7; HEK-293 cells stably transfected with P2X7 receptor, Bz-ATP at EC80, Fluo-8 NW; potency ranges A-D. The protocol:
(§1) Extracellular binding of Bz-ATP to P2X7 receptor opens the channel and allows Ca2+ influx into the cells. […] Once inside the cell, the lipophilic blocking groups of Fluo-8 are cleaved by non-specific cell esterases, resulting in a negatively-charged fluorescent dye that stays inside cells. Its fluorescence increases upon binding to calcium.
(§2) HEK-293 cells stably transfected with P2X7 receptor were seeded overnight in growth medium at 10,000 to 20,000 cell/well in 384-well plate. 24 hours later, the medium was removed and the cells were pre-loaded at RT for 1 hour with 20 μL/w of Fluo-8 NW. Then 10 μL/w of tests compounds and reference antagonist A438079 at 3×-concentration were injected with the […] and the kinetic response over a period of five minutes was monitored. A second injection of 15 μL/w of 3× reference activator (Bz-ATP at EC80) was performed with the […] and the signal of the emitted fluorescence was recorded for additional three minutes. All the experiment was carried out in a Low Divalent Cation Assay Buffer (0.3 mM Ca^2+ and 0 mM Mg^2+). The effect of the test compounds was measured as percent inhibition vs the reference antagonist and IC50 values were calculated accordingly.

The target of experiment [2] is T2, P2X7 receptor (Rattus norvegicus, UniProt Q64663).
T2 construct: rP2X7 (IC50; nM); other: rP2X7; HEK-293 cells stably transfected with P2X7 receptor, Bz-ATP at EC80, Fluo-8 NW; potency
T2 sequence (Q64663 1-595): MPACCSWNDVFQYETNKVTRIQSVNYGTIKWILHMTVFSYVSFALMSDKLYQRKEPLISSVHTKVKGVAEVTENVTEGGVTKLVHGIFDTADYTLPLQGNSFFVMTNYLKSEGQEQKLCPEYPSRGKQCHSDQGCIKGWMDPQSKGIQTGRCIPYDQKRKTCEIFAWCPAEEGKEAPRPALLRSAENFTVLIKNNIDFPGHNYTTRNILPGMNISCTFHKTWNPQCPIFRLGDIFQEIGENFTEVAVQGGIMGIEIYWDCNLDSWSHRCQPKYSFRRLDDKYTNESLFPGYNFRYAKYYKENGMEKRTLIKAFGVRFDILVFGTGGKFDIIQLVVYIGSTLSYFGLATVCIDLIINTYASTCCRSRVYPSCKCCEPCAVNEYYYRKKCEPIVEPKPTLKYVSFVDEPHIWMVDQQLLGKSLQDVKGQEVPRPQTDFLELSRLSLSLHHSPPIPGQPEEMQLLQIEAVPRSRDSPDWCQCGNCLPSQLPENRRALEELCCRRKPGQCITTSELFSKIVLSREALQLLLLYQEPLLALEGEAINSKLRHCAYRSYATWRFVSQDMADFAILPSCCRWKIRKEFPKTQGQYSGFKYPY
To be noted: rP2X7; HEK-293 cells stably transfected with P2X7 receptor, Bz-ATP at EC80, Fluo-8 NW; potency ranges A-D. How it is done:
as §1, §2

For experiment [3], the target named is T3, P2X7 receptor (Homo sapiens, UniProt Q99572).
T3 sequence (Q99572 1-595): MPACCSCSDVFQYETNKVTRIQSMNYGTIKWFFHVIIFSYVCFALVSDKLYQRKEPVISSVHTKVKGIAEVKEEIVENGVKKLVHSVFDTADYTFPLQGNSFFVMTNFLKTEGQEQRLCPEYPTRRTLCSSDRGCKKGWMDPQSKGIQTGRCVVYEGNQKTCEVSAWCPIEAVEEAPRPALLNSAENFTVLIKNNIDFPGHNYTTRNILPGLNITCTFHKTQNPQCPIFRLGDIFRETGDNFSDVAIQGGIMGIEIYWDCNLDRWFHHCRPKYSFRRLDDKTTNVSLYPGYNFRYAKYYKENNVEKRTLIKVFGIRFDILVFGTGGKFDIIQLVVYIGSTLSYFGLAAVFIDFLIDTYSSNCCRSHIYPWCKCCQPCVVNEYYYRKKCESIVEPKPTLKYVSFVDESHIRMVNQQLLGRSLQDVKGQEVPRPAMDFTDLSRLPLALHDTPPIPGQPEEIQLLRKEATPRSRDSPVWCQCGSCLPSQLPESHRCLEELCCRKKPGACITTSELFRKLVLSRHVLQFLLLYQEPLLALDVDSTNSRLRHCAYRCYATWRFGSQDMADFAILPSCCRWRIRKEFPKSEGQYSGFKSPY
The arrangement: hP2X7 (IC50; nM); other: hP2X7; HEK-293 cells stably transfected with P2X7 receptor, Bz-ATP at EC80, Fluo-8 NW; potency. As to conditions: hP2X7; HEK-293 cells stably transfected with P2X7 receptor, Bz-ATP at EC80, Fluo-8 NW; potency ranges A-D. The protocol:
as §1, §2

As for `O=c1onc(Cc2c(F)cccc2Cl)n1CC1CCCOC1` (stereo not drawn) [Example 89, 3-[(2-chloro-6-fluorophenyl)methyl]-4-(oxan-3-ylmethyl)-4,5-dihydro-1,2,4-oxadiazol-5-one], the 50% inhibitory concentration (IC50) was > 10000 nM on P2X7 receptor [1], 1000 to 10000 nM at P2X7 receptor [2] and 1000 to 10000 nM at P2X7 receptor [3].
Consider `O=c1onc(Cc2c(F)cccc2Cl)n1Cc1ccc(C(F)(F)F)nc1` [Example 37, 3-[(2-chloro-6-fluorophenyl)methyl]-4-{[6-(trifluoromethyl)pyridin-3-yl]methyl}-4,5-dihydro-1,2,4-oxadiazol-5-one], for which the results for the IC50 at P2X7 receptor [1], at P2X7 receptor [2] and at P2X7 receptor [3] were 1000 to 10000 nM, > 10000 nM and 1000 to 10000 nM, respectively.
With `CC1CC(F)(F)CCN1Cc1noc(=O)n1Cc1ccc(F)cc1` (stereo not drawn) [Example 227, 3-[(4,4-difluoro-2-methylpiperidin-1-yl)methyl]-4-[(4-fluorophenyl)methyl]-4,5-dihydro-1,2,4-oxadiazol-5-one], the results for the IC50 at P2X7 receptor [1], on P2X7 receptor [2] and at P2X7 receptor [3] were 1000 to 10000 nM, 200 to 1000 nM and 1000 to 10000 nM, respectively.
Consider `O=c1onc(CN2CCC(F)(F)CC2)n1CC1CCCCC1` [Example 222, 4-(cyclohexylmethyl)-3-[(4,4-difluoropiperidin-1-yl)methyl]-4,5-dihydro-1,2,4-oxadiazol-5-one], for which the IC50 at P2X7 receptor [1] is 1000 to 10000 nM; at P2X7 receptor [2], 1000 to 10000 nM; on P2X7 receptor [3] it was > 10000 nM.
On to `O=c1onc(Cc2c(F)cccc2Cl)n1Cc1cccc2ccccc12` [Example 29, 3-[(2-chloro-6-fluorophenyl)methyl]-4-(naphthalen-1-ylmethyl)-4,5-dihydro-1,2,4-oxadiazol-5-one], for which the values for the IC50 on P2X7 receptor [1], on P2X7 receptor [2] and on P2X7 receptor [3] were 1000 to 10000 nM, > 10000 nM and 1000 to 10000 nM, respectively.
With `O=c1onc(Cc2ccccc2F)n1CC1CCC(F)(F)CC1` [Example 150, 4-[(4,4-difluorocyclohexyl)methyl]-3-[(2-fluorophenyl)methyl]-4,5-dihydro-1,2,4-oxadiazol-5-one], the IC50 is 200 to 1000 nM at P2X7 receptor [1], < 200 nM at P2X7 receptor [2] and 200 to 1000 nM on P2X7 receptor [3].
With `O=c1onc(CCc2c(F)cccc2Cl)n1CC1CCC(F)(F)CC1` [Example 147, 3-[2-(2-chloro-6-fluorophenyl)ethyl]-4-[(4,4-difluorocyclohexyl)methyl]-1,2,4-oxadiazol-5(4H)-one], the IC50 at P2X7 receptor [1], at P2X7 receptor [2] and on P2X7 receptor [3] was 200 to 1000 nM throughout.
`O=c1onc(Cc2c(F)cccc2Cl)n1CCCC1CCCCC1` [Example 179, 3-[(2-chloro-6-fluorophenyl)methyl]-4-(3-cyclohexylpropyl)-4,5-dihydro-1,2,4-oxadiazol-5-one]: the values for the IC50 on P2X7 receptor [1], on P2X7 receptor [2] and on P2X7 receptor [3] were 1000 to 10000 nM, > 10000 nM and 1000 to 10000 nM, respectively.
Consider `O=c1onc(CN2CCOc3ccccc32)n1Cc1ccc(F)cc1` [Example 228, 3-(3,4-dihydro-2H-1,4-benzoxazin-4-ylmethyl)-4-[(4-fluorophenyl)methyl]-4,5-dihydro-1,2,4-oxadiazol-5-one], for which the IC50 is 200 to 1000 nM on P2X7 receptor [1], 200 to 1000 nM on P2X7 receptor [2] and < 200 nM at P2X7 receptor [3].
As to `O=c1onc(CN2CCCC(F)(F)C2)n1Cc1c(F)cccc1Cl` [Example 224, 4-[(2-chloro-6-fluorophenyl)methyl]-3-[(3,3-difluoropiperidin-1-yl)methyl]-4,5-dihydro-1,2,4-oxadiazol-5-one], the IC50 at P2X7 receptor [1], on P2X7 receptor [2] and on P2X7 receptor [3] was 200 to 1000 nM each time.
Turning to `O=c1onc(Cc2ccc(F)cc2)n1Cc1cc(F)ccc1Br` [Example 5, 4-[(2-bromo-5-fluorophenyl)methyl]-3-[(4-fluorophenyl)methyl]-4,5-dihydro-1,2,4-oxadiazol-5-one], the values for the IC50 at P2X7 receptor [1], on P2X7 receptor [2] and at P2X7 receptor [3] were > 10000 nM, > 10000 nM and 1000 to 10000 nM, respectively.
Consider `O=c1onc(Cc2c(F)cccc2Cl)n1Cc1ncccn1` [Example 39, 3-[(2-chloro-6-fluorophenyl)methyl]-4-(pyrimidin-2-ylmethyl)-4,5-dihydro-1,2,4-oxadiazol-5-one], for which the IC50 at P2X7 receptor [1], at P2X7 receptor [2] and at P2X7 receptor [3] was > 10000 nM each time.
